Assay results published in ChEMBL document CHEMBL1201862, “PubChem BioAssay data set” (2004).
The source made the active and inactive calls.

Experiments:
Protein RecA = molecular target: T1, Protein RecA (Mycobacterium tuberculosis, UniProt P9WHJ3); assay: Fluorescence Cell-Free Homogeneous Dose Retest to Identify Inhibitors of RecA-Intein Splicing Activity. [Related pubchem assays (depositor defined):AID2097, AID2223, AID489010, AID492950]; type: functional
T1 sequence (P9WHJ3 whole entry): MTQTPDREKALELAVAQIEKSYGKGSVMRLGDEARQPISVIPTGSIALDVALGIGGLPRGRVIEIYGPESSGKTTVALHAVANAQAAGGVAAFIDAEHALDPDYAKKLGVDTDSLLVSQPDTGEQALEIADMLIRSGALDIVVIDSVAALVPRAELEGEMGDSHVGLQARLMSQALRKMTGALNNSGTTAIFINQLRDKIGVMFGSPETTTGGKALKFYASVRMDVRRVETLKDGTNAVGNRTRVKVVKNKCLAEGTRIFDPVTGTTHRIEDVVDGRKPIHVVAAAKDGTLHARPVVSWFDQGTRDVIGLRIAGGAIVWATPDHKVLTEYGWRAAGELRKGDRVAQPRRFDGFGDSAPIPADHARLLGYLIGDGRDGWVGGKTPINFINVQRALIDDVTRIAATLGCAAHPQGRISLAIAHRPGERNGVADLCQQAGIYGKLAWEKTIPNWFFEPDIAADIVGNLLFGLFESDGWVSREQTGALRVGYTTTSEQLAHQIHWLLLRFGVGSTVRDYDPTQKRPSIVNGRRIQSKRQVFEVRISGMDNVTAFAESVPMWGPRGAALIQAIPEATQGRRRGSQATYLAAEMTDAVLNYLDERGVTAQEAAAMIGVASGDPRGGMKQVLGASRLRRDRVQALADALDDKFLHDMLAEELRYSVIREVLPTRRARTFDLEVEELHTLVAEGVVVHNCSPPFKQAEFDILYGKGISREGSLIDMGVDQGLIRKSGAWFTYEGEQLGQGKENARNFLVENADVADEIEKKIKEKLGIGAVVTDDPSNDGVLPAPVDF

[1] = NIH-3T3 fibroblast cytotoxicity, dose response, cytotoxicity control, cell-based, fluorescence, Alamar Blue, secondary assay (AID 2327); type: functional;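 further: NIH-3T3 mouse fibroblasts cultured with fluconazole at 8 µg/mL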
[2] = C. albicans growth with fluconazole, confirmation, fluorescence, retest (AID 2467); type: functional, cell-based
[3] = test system: Streptococcus sp. 'group A'; assay: growth inhibition of control SK(-) GAS strain, dose response, counter-screen for streptokinase expression inhibitor project, luminescence, kanamycin, BacTiterGlo, confirmation (AID 1900); type: functional, organism-based
Streptococcus = assay: Group A Streptococcus viability loss, dose response, counter-screen for streptokinase expression inhibitor project, luminescence, BacTiterGlo (AID 1915); type: functional, organism-based;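 further: potency for reduction of bacterial viability or growth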
[4] = Luminescence Cell-Based Dose Retest to Confirm Inhibitors of Cancer Stem Cells. [Related pubchem assays (depositor defined):AID2717, AID2721]; type: functional; details: Homo sapiens
Cytochrome P450 3A4 = Cytochrome P450 3A4 (Homo sapiens, UniProt P08684);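 further: CYP3A4 tested as one member of a cytochrome P450 panel screen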
Chain of Cytochrome P450 3A4 (P08684 whole entry): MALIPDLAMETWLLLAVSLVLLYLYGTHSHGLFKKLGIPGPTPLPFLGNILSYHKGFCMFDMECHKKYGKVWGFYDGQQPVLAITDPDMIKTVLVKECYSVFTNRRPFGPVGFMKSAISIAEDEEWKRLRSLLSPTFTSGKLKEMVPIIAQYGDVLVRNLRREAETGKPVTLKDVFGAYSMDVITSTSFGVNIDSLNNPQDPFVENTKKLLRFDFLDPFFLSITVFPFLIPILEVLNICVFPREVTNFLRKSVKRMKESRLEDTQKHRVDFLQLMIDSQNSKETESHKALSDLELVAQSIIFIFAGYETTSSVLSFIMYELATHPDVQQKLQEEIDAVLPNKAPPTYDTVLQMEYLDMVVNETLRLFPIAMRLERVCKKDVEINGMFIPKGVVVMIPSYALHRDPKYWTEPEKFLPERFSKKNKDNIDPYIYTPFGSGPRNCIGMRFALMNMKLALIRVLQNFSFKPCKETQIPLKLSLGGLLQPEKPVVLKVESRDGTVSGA

Streptokinase A = molecular target: T2, Streptokinase A (Streptococcus pyogenes serotype M1, UniProt P10520); assay: S. pyogenes streptokinase expression inhibitors, potency, dose response, plasminogen activation absorbance, OD405 (AID 1914); type: functional, Streptococcus pyogenes M1 GAS;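 further: secreted streptokinase activity via plasminogen activation per viability signal from cell pellet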
T2 sequence (P10520 whole entry): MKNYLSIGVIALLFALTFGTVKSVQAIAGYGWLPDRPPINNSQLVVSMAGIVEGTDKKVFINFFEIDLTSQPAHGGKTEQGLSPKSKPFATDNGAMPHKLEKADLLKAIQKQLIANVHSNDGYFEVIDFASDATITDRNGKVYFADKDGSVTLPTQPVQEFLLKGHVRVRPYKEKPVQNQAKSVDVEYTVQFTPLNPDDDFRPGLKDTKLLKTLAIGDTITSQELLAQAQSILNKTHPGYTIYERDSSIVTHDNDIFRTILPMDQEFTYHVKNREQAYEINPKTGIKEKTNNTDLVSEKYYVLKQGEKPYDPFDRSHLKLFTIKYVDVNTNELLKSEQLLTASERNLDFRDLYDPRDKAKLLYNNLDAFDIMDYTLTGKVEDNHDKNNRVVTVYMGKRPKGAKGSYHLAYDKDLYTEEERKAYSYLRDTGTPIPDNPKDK

Cytochrome P450 2C19 = Cytochrome P450 2C19 (Homo sapiens, UniProt P33261); assay: Cytochrome panel assay with activity outcomes. Panel member name: p450-cyp2c19 Compounds with AC50 equal or less than 10 uM are considered active; type: functional; details: read-out: AC50
Chain of Cytochrome P450 2C19 (P33261 whole entry): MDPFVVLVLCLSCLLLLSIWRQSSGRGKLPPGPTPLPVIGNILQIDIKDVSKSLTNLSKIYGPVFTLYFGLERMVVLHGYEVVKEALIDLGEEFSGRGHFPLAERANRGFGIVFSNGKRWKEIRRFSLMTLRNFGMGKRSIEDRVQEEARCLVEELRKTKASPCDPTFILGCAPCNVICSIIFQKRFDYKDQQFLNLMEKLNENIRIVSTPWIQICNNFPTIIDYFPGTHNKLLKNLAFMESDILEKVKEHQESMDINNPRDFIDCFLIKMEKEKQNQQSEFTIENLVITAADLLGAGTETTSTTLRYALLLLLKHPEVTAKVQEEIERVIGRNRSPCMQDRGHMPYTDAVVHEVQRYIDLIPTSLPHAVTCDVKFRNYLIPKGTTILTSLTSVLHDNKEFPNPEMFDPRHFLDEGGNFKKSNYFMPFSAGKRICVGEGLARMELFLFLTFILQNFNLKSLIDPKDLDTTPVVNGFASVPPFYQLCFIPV

[5] = cytotoxicity toward NIH3T3 fibroblasts, dose response, counter-screen, cell-based, ATP luminescence, mouse fibroblasts (AID 2010); type: functional;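 further: cells exposed to compound for about 90 hours before reading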
INS1 = assay: beta cell apoptosis inhibitors, cytokine rescue, dose response, luminescence, retest (AID 449756); type: functional, cell-based; details: Rattus norvegicus;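 further: cell death triggered by IL-1 beta plus TNF-alpha plus IFN-gamma mixture; protective hits raise ATP signal compared with cytokine alone wells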
[6] = inhibitors of intracellular T. cruzi replication, confirmation, NIH3T3 host cells, beta-gal luminescence (AID 2044); type: functional, cell-based;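 further: intracellular parasites grown in NIH/3T3 mouse fibroblasts as host cells; luminescent beta-galactosidase reporter signal from transgenic T. cruzi replicating inside host cells; inhibitors lower the luminescence signal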
Cytochrome P450 1A2 = molecular target: T3, Cytochrome P450 1A2 (Homo sapiens, UniProt P05177);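 further: PubChem cytochrome P450 panel assay, CYP1A2 panel member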
T3 sequence (P05177 whole entry): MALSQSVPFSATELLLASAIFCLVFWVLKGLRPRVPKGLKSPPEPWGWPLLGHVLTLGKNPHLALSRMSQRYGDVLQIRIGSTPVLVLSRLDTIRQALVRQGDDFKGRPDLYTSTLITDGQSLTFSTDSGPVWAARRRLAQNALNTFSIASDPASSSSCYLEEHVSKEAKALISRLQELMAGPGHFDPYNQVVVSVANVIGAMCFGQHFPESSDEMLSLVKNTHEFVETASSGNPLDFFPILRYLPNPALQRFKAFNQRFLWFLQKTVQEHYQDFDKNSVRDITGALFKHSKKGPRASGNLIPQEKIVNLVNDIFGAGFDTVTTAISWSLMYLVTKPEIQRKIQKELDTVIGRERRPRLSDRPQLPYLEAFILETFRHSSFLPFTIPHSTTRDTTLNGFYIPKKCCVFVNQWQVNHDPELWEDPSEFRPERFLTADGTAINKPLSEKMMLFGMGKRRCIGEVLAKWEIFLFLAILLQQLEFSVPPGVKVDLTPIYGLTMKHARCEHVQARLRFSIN

[7] = HEp-2 cell cytotoxicity, dose response, cytotoxicity control for RSV inhibitor project, HTS (AID 2410); type: functional; details: human respiratory syncytial virus

CC1=NN(c2cccc(Cl)c2)C(=O)C12CC(C)=C(C)CS2 (stereo not drawn)
EC50 (Protein RecA): 13.2 µM (active)

O=C1NN(c2ccc(F)cc2)C(=O)/C1=C/c1cccs1
EC50 [1]: > 160 µM (inactive) | EC50 [2]: > 38 µM (not active)

COc1ccc(-c2csc(N(CC3CCCO3)C(=O)c3ccco3)n2)cc1 (stereo not drawn)
EC50 [1]: > 160 µM (inactive) | EC50 [2]: > 38 µM (not active)

O=C1NC[C@@H](Cc2cccc3ccccc23)N(CCCCC2CCCCC2)C1=O
EC50 [3]: 3.38 µM (active) | EC50 (Streptococcus): 7.07 µM (active) | AC50 [4]: 3.84 µM (active)

CCCC(=O)N1c2ccccc2C(N(C(C)=O)c2ccccc2)CC1C (stereo not drawn)
AC50 (Cytochrome P450 3A4): 0.891 µM (inconclusive)

O=C1CCCC=C1[C@H](CCc1ccccc1)OC(=O)c1ccc(Br)cc1
AC50 (Cytochrome P450 3A4): 5.01 µM (inconclusive)

O=C(NC(=S)Nc1cccc(-c2ccc(CO)o2)c1)c1cccs1
EC50 [3]: 23.1 µM (active) | EC50 (Streptokinase A): > 150 µM (not active) | EC50 (Streptococcus): 68.4 µM (active)

O=C(Nc1ccc(F)cc1)N1CCCCCC1
EC50 [3]: > 150 µM (not active) | EC50 (Streptokinase A): > 150 µM (not active) | EC50 (Streptococcus): > 150 µM (not active)

COc1ccc(N2C(=O)NC3CC2(C)Oc2ccccc23)cc1OC (stereo not drawn)
AC50 (Cytochrome P450 3A4): 22.4 µM (inconclusive) | AC50 (Cytochrome P450 2C19): 7.94 µM (inconclusive)

COc1ccc(NC(=O)N2CCCC3(CCN(C(=O)c4cc(C(F)(F)F)cc(C(F)(F)F)c4)CC3)C2)cc1
AC50 (Cytochrome P450 3A4): 10 µM (inconclusive)

CCC(C)n1c(-c2cccs2)nc2nc3ccccc3nc21 (stereo not drawn)
AC50 [4]: 2.73 µM (active)

CSc1ccc(C2=CC(=O)C[C@H](c3ccc(Cl)cc3)C2)cc1
AC50 [4]: 1.7 µM (active)

CC(C)N=C(S)NC(c1ccccc1)(c1ccccc1)c1ccccc1
EC50 [3]: 6.6 µM (active) | EC50 [5]: > 60 µM (not active) | EC50 (Streptococcus): > 150 µM (not active) | AC50 (INS1): 8.18 µM (active) | EC50 [6]: 3.99 µM (active)

O=C(Nc1ccc(O)cc1)c1ccc(NC(=O)c2cccs2)cc1
AC50 [4]: 3.51 µM (active)

Cc1ccccc1-c1ccnc2[nH]n(-c3ccccc3)c(=O)c12
EC50 [1]: > 160 µM (inactive) | EC50 [2]: > 38 µM (not active)

COc1cc(/C=C(\C#N)c2ccccn2)ccc1OCC(=O)Nc1ccc(Br)cc1
AC50 [4]: 1.71 µM (active)

Cc1ccc(NC(S)=NC2CCCC2)cc1
AC50 (Cytochrome P450 3A4): 10 µM (inconclusive)

O=C(Nc1ccccc1)N1CC[C@@]2(CCCN(C(=O)c3ccncc3)C2)C1
AC50 (Cytochrome P450 3A4): 15.8 µM (inconclusive)

CCn1nnnc1NC(=O)c1cc(Cl)c(OC)c(Cl)c1
EC50 [1]: > 160 µM (inactive) | EC50 [2]: 2.51 µM (active)

CCc1c(C)sc2nc(C(C)C)nc(SCC(=O)N3CCc4ccccc4C3)c12
EC50 [3]: 9.77 µM (active) | EC50 (Streptokinase A): 2.38 µM (active) | EC50 (Streptococcus): 15.1 µM (active) | AC50 [4]: 4.63 µM (active) | AC50 (INS1): 1.94 µM (active)

O=c1c2cc(Br)ccc2nc(-c2ccccc2)n1O
EC50 [1]: 70.4 µM (active) | EC50 [2]: 1.99 µM (active)

COc1ccc(CNC(=O)Cc2csc(NC(=O)Nc3ccccc3OC)n2)cc1
EC50 [3]: > 150 µM (not active) | EC50 (Streptokinase A): > 150 µM (not active) | EC50 (Streptococcus): > 150 µM (not active)

COCc1ccc(O)c2ncccc12
AC50 (INS1): 5 µM (active)

COc1ccc(NC(=O)N2CCCC3(CCN(C(=O)c4cccc(F)c4)CC3)C2)cc1
AC50 (Cytochrome P450 3A4): 15.8 µM (inconclusive)

CC(COc1ccc(C(C)C)cc1)NC(=O)c1ccc(Br)o1 (stereo not drawn)
EC50 [3]: 45.6 µM (active) | EC50 (Streptokinase A): > 150 µM (not active) | EC50 (Streptococcus): > 150 µM (not active)

CC(C)C(=O)NC(c1ccccc1)c1cc([N+](=O)[O-])c2cccnc2c1O (stereo not drawn)
EC50 [3]: 2.12 µM (active) | EC50 (Streptokinase A): > 150 µM (not active) | EC50 (Streptococcus): 2.98 µM (active) | AC50 [4]: 1.27 µM (active) | AC50 (INS1): 6.59 µM (active)

Oc1ccc(Oc2ccc(Oc3ccc(O)cc3)cc2)cc1
EC50 [3]: 8.4 µM (active) | EC50 (Streptokinase A): > 150 µM (not active) | EC50 (Streptococcus): 18.4 µM (active)

CCCC(O)(c1ccc(Cl)cc1)C(CN1CCOCC1)c1ccc(Cl)cc1 (stereo not drawn)
AC50 [4]: 6 µM (active)

Cc1cc2nc(C3CCCN(C(S)=Nc4ccccc4)C3)[nH]c2cc1C (stereo not drawn)
AC50 (Cytochrome P450 1A2): 1.58 µM (inconclusive) | AC50 (Cytochrome P450 3A4): 0.141 µM (inconclusive) | AC50 (Cytochrome P450 2C19): 7.08 µM (inconclusive)

Cc1ccc(N=Nc2c(N)nn3c(O)c4c(nc23)CCCC4)cc1
AC50 (Cytochrome P450 3A4): 7.94 µM (inconclusive)

Cc1cc(OCc2nc(-c3ccc(NC(=O)c4cccnc4)cc3)no2)ccc1Cl
AC50 (INS1): 0.624 µM (active) | CC50 [7]: > 50 µM (active)

CCN=C(S)N1N=C2c3ccccc3CCC2C1c1ccc(F)cc1 (stereo not drawn)
AC50 [4]: 1.46 µM (active)

COc1ccc(CNc2cc(-c3ccccc3CN(C)C)ncn2)c(OC)c1
AC50 (Cytochrome P450 1A2): 15.8 µM (inconclusive) | AC50 (Cytochrome P450 3A4): 15.8 µM (inconclusive)

CCN(CC)CCN(C(=O)C1=COCCO1)c1nc2cc(C)cc(C)c2s1
EC50 [3]: > 150 µM (not active) | EC50 (Streptokinase A): > 150 µM (not active) | EC50 (Streptococcus): > 150 µM (not active)

NS(=O)(=O)Cc1noc2ccccc12
AC50 (Cytochrome P450 3A4): 31.6 µM (inconclusive)

O=C(CC1CC2CCC1C2)NCCc1ccc(Cl)cc1 (stereo not drawn)
AC50 (INS1): > 260 µM (inactive)

CC1(C)CC[C@]2(CO)CC[C@]3(C)C(=CCC4[C@@]5(C)CC[C@H](O)[C@@](C)(CO)C5CC[C@]43C)[C@@H]2C1 (stereo partly drawn)
AC50 [4]: 3.13 µM (active)

C/C(=N/NC(=O)c1cc(-c2ccccc2)nc2c(Cl)cccc12)c1cccnc1
EC50 [3]: > 150 µM (not active) | EC50 (Streptokinase A): 25.9 µM (inconclusive) | EC50 (Streptococcus): > 150 µM (not active)

Cc1[nH]n(-c2ccccc2)c(=O)c1/C=C1/C(=O)NN(c2ccc(F)cc2)C1=O
AC50 [4]: 4.08 µM (active)

COc1cc(/C=N/Nc2nc(Nc3ccccc3)nc(-n3nc(C)cc3C)n2)cc(OC)c1OC
EC50 [3]: 5.1 µM (active) | EC50 [5]: 7.23 µM (active) | EC50 (Streptokinase A): > 150 µM (not active) | EC50 (Streptococcus): 13.8 µM (active) | AC50 [4]: 3.63 µM (active) | EC50 [6]: 0.737 µM (active)
